Measured values taken from US9850308B2, “Neutralization of CD95 activity blocks invasion of glioblastoma cells in vivo” (Deutsches Krebsforschungszentrum Stiftung des oeffentlichen …, priority 2006, dated 2017).
Entries after “also recorded” stand apart in the source; their conditions may differ. Residues, ends and D or L forms follow the SMILES beside them. *: point of attachment. Cbz = O=C(OCc1ccccc1)*; CH2F = FC*

Legend:
T98G cells = test: Migration assay (collagen-coated transwell / two dimensional migration assay); format: cell-based, human; conditions: T98G cells stimulated with α-Apo-1 (2 μg/ml) or LZ-CD95L (5 ng/ml)
Protocol: Migration of the glioma cells in vitro was measured by the migration through Collagen 1-coated (Chemicon) transwell inserts (Falcon). 5×10^4 cells were plated in 200 μl medium onto collagen-coated (50 μg/ml) transwell inserts with 8 μm pore size. Cells were either γ-irradiated before plating or treated after plating with α-Apo1 (2 μg/ml or 0.1 μg/ml+ProteinA for cross linking), LZ-CD95L (5 ng/ml), Nok1 (50 ng)/LZ-CD95L (5 ng/ml), Nok1 (50 ng) LZ-Supernatant (SN, 5 ng/ml), CD95L (10 ng/ml) and CD95L-T34. Preferably 24 h after plating the cells were starved with basal DMEM for additional 24 h before they were treated. The number of completely migrated cells was counted at 12 h, 24 h and 36 h after treatment. In every experiment triplicates were counted for each treatment.
2.5×10^5 cells were plated onto 6 cm culture dishes 12 h prior to irradiation. […]
Knockdown experiments were performed by transient transfection with Lipofectamine 2000™ (Invitrogen Life Technologies) following the instruction manual. […] After transient transfection with the different siRNAs cells were cultured for 72 h before treated with CD95LT4 (10 ng/ml and 20 ng/ml), migration was analyzed 24 h after treatment with a two dimensional migration assay. The knockdown was controlled by quantitative real-time PCR and FACS. […] Migration was measured 24 h after treatment in a two dimensional migration assay.

[1] = test system: Jurkat A3 permanent human T-cell line; test: Jurkat apoptosis assay (Caspase 3/7 activity); format: cell-based; conditions: Jurkat cells, 250 ng/ml CD95L-T4, 30 min preincubation
GSK3β = test: Phosphorylation (inhibition) of GSK3β, Western Blot; format: cell-based, human; conditions: T98G cells, pre-treatment before CD95 stimulation
Protocol: The MAPK inhibitor, PD98059 (25 μM), the PI3K inhibitor […] (25 μM) and the pancaspase inhibitor zVAD-fmk (40 μM) were purchased from Calbiochem. The ILK inhibitor (20 μM) was kindly provided from S. Dedhar. Cells were preincubated with inhibitors 30 minutes (LY 290059 and zVAD-fmk) prior to treatment with either CD95L-T4 or αApo-1. Generation of Leucinezipper-CD95L (LZCD95L) was performed as previously described^41. The blocking agents (zVAD-fmk, PD98059, LY 290059 and KP-SD1) were given 30 minutes before treatment with LZ-CD95L or αApo-1. Cells were lysed for further biochemical analysis. Protein extraction and immunoblotting was performed as previously described^41.

Compound: COc1cccc(-c2cc(=O)c3ccccc3o2)c1N [PD98059]
- blockade of CD95-induced migration (T98G cells): did not interfere with CD95-induced migration
- blockade of CD95-induced migration (T98G cells; listed as PD 98059): did not interfere with the CD95-induced migration

Compound: APG101: fusion protein of the extracellular domain of the human CD95-receptor with human Fc, SEQ ID NO:1
- antagonism of CD95L-T4-induced apoptosis [1]: antagonizes the apoptosis inducing effect of CD95L; also recorded: antagonized by APG101 in a dose dependent manner
- antagonism of CD95L-T4-induced apoptosis ([1]; listed as AP-G101): antagonizes the apoptosis inducing activity of CD95L-T4

Compound: COC(=O)C[C@H](NC(=O)[C@H](C)NC(=O)[C@@H](NC(=O)OCc1ccccc1)C(C)C)C(=O)CF [zVAD-fmk] (Cbz-Val-Ala-Asp(OMe)-CH2F)
- blockade of CD95-induced GSK3β phosphorylation/inhibition (GSK3β): did not prevent GSK3β phosphorylation; also recorded: did not interfere with α-Apo-1 (2 μg/ml)-induced inhibition of GSK3β
- blockade of CD95-induced GSK3β phosphorylation/inhibition (GSK3β; listed as zVAD.fmk): did not block ser9 phosphorylation of GSK3β
